# Entries after “also recorded” stand apart in the source; their conditions may differ. Marks after values point to notes of the source that are not given here.
# Assays:
# Type in all cases: cell-based, Saccharomyces cerevisiae
# S. cerevisiae JAY 270 [1] = test: Screening of growth in 24-well plates on YPDA; conditions: for Cell growth score (colony size): YPDA, 30° C., 24 h
# Method: Procedure: An inoculum culture of S. cerevisiae JAY 270 was grown in 100 mL of yeast extract-peptone-dextrose (YPD) medium (10 g/L yeast extract, 20 g/L peptone, 20 g/L glucose) in 200-mL serum bottles overnight in a shaker at 30° C. and 200 rpm. The cells were collected by centrifuging 10 min at 4000×g and 4° C. To wash off the medium residue, the cell pellet was resuspended in 30 mL of sterile 0.8% (w/v) NaCl solution and centrifuged at 4000×g for 10 min. The cell pellet was washed twice. Finally, the cell pellet was resuspended and diluted in 0.8% (w/v) NaCl to achieve cell concentrations of OD600=0.02 and 0.2.
# The eight compounds were added in YPDA separately at 0.03%, 0.05%, 0.1%, and 0.2% (w/v). The standard control treatment contained only YPDA medium without addition of these compounds. Since the TrpOH and TyrOH stock solutions were dissolved in DMSO, the controls for those tests were YPDA with the same concentration of DMSO. A 3-mL aliquot of YPDA medium with or without the test compounds were loaded in each well of the 24-well plate.
# Ten μL of the prepared S. cerevisiae JAY 270 cell suspension at OD600=0.02 or 0.2 was loaded onto the YPDA medium in each well of the 24-well plates. Then the plates were sealed with Parafilm and incubated at 30° C. for 24 h. There were four biological replicates for each treatment.
# Yeast cell growth was evaluated by visual observation of the colony size in the well and scored as 0, +, ++, and +++.
# S. cerevisiae JAY 270 [2] = test: Serum-bottle cultivation in YPD: biomass, glycerol, ethanol yields
# Method: Procedure: Cultivations in serum bottles were used to determine the effect of the best-performing screened chemicals on the ethanol yield. S. cerevisiae JAY 270 was pre-cultured in 100 mL of YPD medium in 200-mL serum bottles overnight in a shaker at 30° C. and 200 rpm. The precultured yeast cells were collected and washed twice as described above. The cell pellet was resuspended in about 10 mL of 0.8% (w/v) NaCl and the cell concentration was estimated as OD600. TyrOH, PheOH, and TrpOH were added to 30 mL of YPD medium in 100-mL serum bottles at 0.05% and 0.2% respectively. The same amount of DMSO was added to YPD medium to serve as the control for TrpOH and TyrOH treatments. The bottles were inoculated with the prepared yeast cells to obtain an initial cell concentration of OD600=0.2. The serum bottles were sealed and cultured in a shaker at 30° C. and 200 rpm for 24 h. Each condition had three biological replicates.
# (§1) Analytical methods: Cell growth was evaluated by monitoring OD600 and cell dry mass concentration. For dry mass measurements, 1.0 mL of culture was transferred to a pre-dried and pre-weighed 2-mL centrifuge tube. The tubes were centrifuged for 10 min at 14000 rpm using a microcentrifuge, and then the cell pellets were dried in an oven for 3 days at 65° C. The cell dry mass was determined by subtracting the initial tube mass from the dried mass of tube with cells. The concentrations of glucose, ethanol, and glycerol were measured via HPLC (Shimadzu LC20A series) outfitted with a refractive index detector and using an Aminex HPX-87H (300×7.8 mm) organic acid column and Cation H+ guard cartridge (Bio Rad Laboratories, Hercules, CA). The column was maintained at 65° C. and the mobile phase was 5 mM sulfuric acid with a flow rate of 0.6 mL/min. Standard compound solutions were used to calibrate the HPLC. Each sample was analyzed three times by HPLC.
# S. cerevisiae JAY 270 [3] = test: Growth test in liquid YNB medium, low/high nitrogen, serum bottles; conditions: 40, 200, 1000 mg/L; low and high nitrogen media
# Method: A second set of tests was performed in a defined liquid medium, Yeast Nitrogen Base with Glucose (YNB), containing (NH4)2SO4 at either low (1 mM) or high (10 mM) nitrogen content. […] All serum bottles were incubated in a shaker at 30° C. and 150 RPM. Each treatment was performed in biological duplicate. Samples were collected at 0, 5, and 10 hours.
# S. cerevisiae JAY 238 = test: Serum-bottle cultivation in YPD, different yeast strains; conditions: 0.2%
# Method: as §1
# Procedure: Seven yeast strains (S. cerevisiae ATCC 26603, S. cerevisiae JAY 238, S. cerevisiae JAY 240, S. cerevisiae JAY 241, S. paradoxus JAY 1502, S. kudriavzezii JAY 1503, and S. mikatae JAY 1504) were pre-cultured in 30 mL of YPD medium in 100 mL serum bottle overnight in a shaker at 30° C. and 200 rpm. The precultured yeast cells of each strains were collected and washed twice. Finally, the cell pellet was resuspended in about 10 mL 0.8% (w/v) NaCl and the OD600 measured. TyrOH, PheOH, and TrpOH were added to 30 mL of YPD medium in 100-mL serum bottles at 0.2% (w/v) respectively. The same amount of DMSO was added in YPD medium and served as control to the TrpOH and TyrOH treatments. The prepared yeast cells were added to obtain the initial cell concentration at OD600=0.2. The serum bottles were sealed and cultured in a shaker at 30° C. and 200 rpm for 24 h. There were three biological replicates for each treatment.
# [4] = 0.05% (w/v), YPD, serum bottles
# [5] = S. cerevisiae JAY 238, YPD (Table 9B)
smiles,measurement,setting,value
"OCCc1ccc(O)cc1 [TyrOH, Tyrosol]",Cell growth score (colony size),S. cerevisiae JAY 270 [1]; 0.03% (w/v),+++
same,Cell growth score (colony size),S. cerevisiae JAY 270 [1]; 0.05% (w/v),+++
same,Cell growth score (colony size),S. cerevisiae JAY 270 [1]; 0.10% (w/v),+++
same,Cell growth score (colony size),S. cerevisiae JAY 270 [1]; 0.20% (w/v),+
same,Concentration at which cell growth was reduced in the plate assay,S. cerevisiae JAY 270 [1]; molar equivalent of the % w/v value,7.2 mM
same,Effect on cell growth in the plate assay (words),"S. cerevisiae JAY 270 [1]; tested concentrations, 24-well plates",inhibited growth; also recorded: reduced the growth
same,Biomass Yield,S. cerevisiae JAY 270 [2]; [4],0.095 + 0.001 g/g
same,Biomass yield % change vs. control,S. cerevisiae JAY 270 [2]; [4],−5%
same,EtOH yield,S. cerevisiae JAY 270 [2]; [4],0.38 ± 0.01 g/g
same,EtOH yield % change vs. control,S. cerevisiae JAY 270 [2]; [4],0.8%
same,Glycerol yield,S. cerevisiae JAY 270 [2]; [4],0.031 ± 0.001 g/g
same,Glycerol yield % change vs. control,S. cerevisiae JAY 270 [2]; [4],−9%
same,Biomass yield vs. reference,"S. cerevisiae JAY 270 [2]; 0.05%, YPD, serum bottles",−5.0%
same,Ethanol yield,"S. cerevisiae JAY 270 [2]; 0.05%, YPD, serum bottles",0.38 ± 0.01 g/g
same,Ethanol yield vs. reference,"S. cerevisiae JAY 270 [2]; 0.05%, YPD, serum bottles",0.8%
same,Glycerol yield,"S. cerevisiae JAY 270 [2]; 0.05%, YPD, serum bottles",0.031 ± 0.001 g/g
same,Glycerol yield vs. reference,"S. cerevisiae JAY 270 [2]; 0.05%, YPD, serum bottles",−9.0%
same,OD600,"S. cerevisiae JAY 270 [2]; 0.05%, YPD, serum bottles",3.66
same,Effect on yeast cell growth,S. cerevisiae JAY 270 [2]; 0.2%,reduced yeast cell growth
same,Biomass Yield,"S. cerevisiae JAY 270 [2]; 0.2% (w/v), YPD, serum bottles",0.085 + 0.003 g/g
same,Biomass yield % change vs. control,"S. cerevisiae JAY 270 [2]; 0.2% (w/v), YPD, serum bottles",−15* %
same,EtOH yield,"S. cerevisiae JAY 270 [2]; 0.2% (w/v), YPD, serum bottles",0.40 ± 0.00 g/g
same,EtOH yield % change vs. control,"S. cerevisiae JAY 270 [2]; 0.2% (w/v), YPD, serum bottles",6.9* %
same,Glycerol yield,"S. cerevisiae JAY 270 [2]; 0.2% (w/v), YPD, serum bottles",0.027 ± 0.000 g/g
same,Glycerol yield % change vs. control,"S. cerevisiae JAY 270 [2]; 0.2% (w/v), YPD, serum bottles",−20* %
same,Biomass yield vs. reference,"S. cerevisiae JAY 270 [2]; 0.2%, YPD, serum bottles",−15.3%
same,Effect on ethanol yield,"S. cerevisiae JAY 270 [2]; 0.2%, YPD, serum bottles",increased the ethanol yield significantly
same,Ethanol yield,"S. cerevisiae JAY 270 [2]; 0.2%, YPD, serum bottles",0.40 ± 0.00 g/g
same,Ethanol yield vs. reference,"S. cerevisiae JAY 270 [2]; 0.2%, YPD, serum bottles",6.9%
same,Glycerol yield,"S. cerevisiae JAY 270 [2]; 0.2%, YPD, serum bottles",0.027 ± 0.000 g/g
same,Glycerol yield vs. reference,"S. cerevisiae JAY 270 [2]; 0.2%, YPD, serum bottles",−19.9%
same,OD600,"S. cerevisiae JAY 270 [2]; 0.2%, YPD, serum bottles",3.27
same,Inhibitory effect on yeast cell growth in liquid YNB medium,S. cerevisiae JAY 270 [3],"inhibitory at 1000 mg/L in both media, but not at 40 and 200 mg/L"
same,Biomass Yield,S. cerevisiae JAY 238; S. cerevisiae JAY 238,0.058 ± 0.001 g/g
same,Biomass yield % change vs. control,S. cerevisiae JAY 238; S. cerevisiae JAY 238,−14* %
same,EtOH yield,S. cerevisiae JAY 238; S. cerevisiae JAY 238,0.455 ± 0.016 g/g
same,EtOH yield % change vs. control,S. cerevisiae JAY 238; S. cerevisiae JAY 238,+8.3* %
same,Glycerol yield,S. cerevisiae JAY 238; S. cerevisiae JAY 238,0.036 ± 0.002 g/g
same,Glycerol yield % change vs. control,S. cerevisiae JAY 238; S. cerevisiae JAY 238,−8.3%
same,DCW,"S. cerevisiae JAY 238; S. cerevisiae JAY 238, YPD",2.35 mg
same,DCW Δ vs. ref,"S. cerevisiae JAY 238; S. cerevisiae JAY 238, YPD",83.9%
same,OD600,"S. cerevisiae JAY 238; S. cerevisiae JAY 238, YPD",1.99
same,OD600 Δ vs. ref,"S. cerevisiae JAY 238; S. cerevisiae JAY 238, YPD",85.0%
same,Biomass Yield,S. cerevisiae JAY 238; [5],0.058 + 0.001 g/g
same,Biomass yield Δ vs. ref,S. cerevisiae JAY 238; [5],−13.9%
same,Ethanol yield,S. cerevisiae JAY 238; [5],0.455 ± 0.016 g/g
same,Ethanol yield Δ vs. ref,S. cerevisiae JAY 238; [5],8.3%
same,Glycerol yield,S. cerevisiae JAY 238; [5],0.036 ± 0.002 g/g
same,Glycerol yield Δ vs. ref,S. cerevisiae JAY 238; [5],−8.30%

# Reference: US11827917B1, “Methods for the conversion of fermentable sugars to ethanol” (Colorado State University Research Foundation, priority 2020, dated 2023)
